# Measurements as given in ChEMBL document CHEMBL5385887, “Discovery of Sibiriline derivatives as novel receptor-interacting protein kinase 1 inhibitors” (Eur J Med Chem, 2023).
# Activity calls are given as the source filed them. The calls are words filed in the database; no cut-off is given here.
# Columns and labels:
# [1] = test system: L929; assay: Anti-necroptosis activity against TNFalpha/z-VAD-fmk-induced mouse L929 cell necroptosis model assessed as cell viability pretreated with compound for 1 hr followed by treated with TZ for 6 hrs; format: functional, cell-based
# [2] = test system: HT-29; assay: Anti-necroptosis activity against TS-induced human HT-29 cell necroptosis model assessed as cell viability at 0.039 to 10 uM pretreated with compound for 1 hr followed by treated with TS for 12 hrs; format: functional, cell-based; conditions: dose 0.039-10 µM
# [3] = target: T1, Receptor-interacting serine/threonine-protein kinase 1 (Mus musculus) (UniProt Q60855); assay: Inhibition of RIPK1 phosphorylation in mouse L929 cells at 250 nM by Western blotting analysis; format: cell-based; conditions: time 0.5-2.5 hrs, TDE = time-dependent effect
# T1 sequence (whole entry): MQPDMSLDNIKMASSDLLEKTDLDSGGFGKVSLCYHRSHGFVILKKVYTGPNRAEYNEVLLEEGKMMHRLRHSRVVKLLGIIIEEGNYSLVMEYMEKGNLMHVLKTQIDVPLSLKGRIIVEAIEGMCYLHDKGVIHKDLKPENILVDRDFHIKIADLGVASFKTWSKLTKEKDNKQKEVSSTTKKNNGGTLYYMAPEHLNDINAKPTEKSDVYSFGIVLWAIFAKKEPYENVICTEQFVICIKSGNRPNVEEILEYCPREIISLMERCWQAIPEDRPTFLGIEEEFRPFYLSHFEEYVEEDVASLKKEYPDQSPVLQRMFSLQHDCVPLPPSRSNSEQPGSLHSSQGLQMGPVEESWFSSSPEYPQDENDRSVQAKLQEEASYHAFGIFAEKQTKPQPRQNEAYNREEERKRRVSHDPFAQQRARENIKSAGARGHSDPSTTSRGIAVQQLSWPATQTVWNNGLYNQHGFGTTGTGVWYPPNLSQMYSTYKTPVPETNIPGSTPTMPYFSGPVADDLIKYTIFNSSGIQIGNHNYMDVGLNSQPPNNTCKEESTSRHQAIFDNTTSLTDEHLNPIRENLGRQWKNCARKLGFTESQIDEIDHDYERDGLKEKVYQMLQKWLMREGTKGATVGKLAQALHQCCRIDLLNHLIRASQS
# [4] = target: T2, Receptor-interacting serine/threonine-protein kinase 1 (Homo sapiens, UniProt Q13546); assay: Inhibition of RIPK1 (unknown origin) using MBP substrate incubated for 2 hrs by ADP-Glo kinase function assay
# T2 sequence (Q13546 whole entry): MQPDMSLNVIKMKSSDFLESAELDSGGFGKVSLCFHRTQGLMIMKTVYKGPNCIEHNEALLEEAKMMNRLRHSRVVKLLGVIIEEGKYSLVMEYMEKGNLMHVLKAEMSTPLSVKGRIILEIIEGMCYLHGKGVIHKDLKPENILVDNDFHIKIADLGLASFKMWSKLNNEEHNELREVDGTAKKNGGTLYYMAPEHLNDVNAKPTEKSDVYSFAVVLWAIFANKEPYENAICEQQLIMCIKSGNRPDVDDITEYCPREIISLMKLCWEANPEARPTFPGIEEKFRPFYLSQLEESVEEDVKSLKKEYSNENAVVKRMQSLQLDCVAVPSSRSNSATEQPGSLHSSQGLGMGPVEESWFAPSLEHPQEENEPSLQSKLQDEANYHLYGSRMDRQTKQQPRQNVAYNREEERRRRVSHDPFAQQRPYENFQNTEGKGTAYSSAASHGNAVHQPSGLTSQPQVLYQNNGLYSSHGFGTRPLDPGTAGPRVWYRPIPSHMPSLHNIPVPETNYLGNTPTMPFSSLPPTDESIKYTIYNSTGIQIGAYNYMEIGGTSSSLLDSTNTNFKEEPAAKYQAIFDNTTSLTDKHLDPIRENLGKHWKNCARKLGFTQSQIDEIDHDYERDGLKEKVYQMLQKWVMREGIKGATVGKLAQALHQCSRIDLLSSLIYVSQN
# [5] = test system: U-937; assay: Anti-necroptosis activity against TSZ-induced human U937 cell necroptosis model assessed as cell viability pretreated with compound for 1 hr followed by treated with TSZ for 12 hrs; format: functional, cell-based; conditions: dose 0.039-10 µM, time 13.0 hrs
# [6] = test system: L929; assay: Anti-necroptosis activity against TNFalpha/z-VAD-fmk-induced mouse L929 cell necroptosis model assessed as increase in viable cells pretreated with compound for 1 hr followed by treated with TZ for 6 hrs by Hoechst 33342/PI staining based flow cytometric analysis; format: functional; conditions: time 7.0 hrs
# [7] = test system: Mus musculus; assay: (§1) In vivo anti-necroptotic effect in TNFalpha-induced systemic inflammatory response syndrome C57BL/6J mouse model assessed as reduction in hypothermic injury by measuring increase in survival at 40 mg/kg, ip followed by compound treatment after 1 hr injected moue TNFalpha and measured continuously upto 72 hrs; format: functional; conditions: time 73 hrs
# [8] = target: T3, Mixed lineage kinase domain-like protein (Mus musculus) (UniProt Q9D2Y4); assay: Inhibition of MLKL phosphorylation in mouse L929 cells at 250 nM incubated for 0.5 to 2.5 hrs by Western blotting analysis; format: cell-based; conditions: time 0.5-2.5 hrs
# T3 sequence (whole entry): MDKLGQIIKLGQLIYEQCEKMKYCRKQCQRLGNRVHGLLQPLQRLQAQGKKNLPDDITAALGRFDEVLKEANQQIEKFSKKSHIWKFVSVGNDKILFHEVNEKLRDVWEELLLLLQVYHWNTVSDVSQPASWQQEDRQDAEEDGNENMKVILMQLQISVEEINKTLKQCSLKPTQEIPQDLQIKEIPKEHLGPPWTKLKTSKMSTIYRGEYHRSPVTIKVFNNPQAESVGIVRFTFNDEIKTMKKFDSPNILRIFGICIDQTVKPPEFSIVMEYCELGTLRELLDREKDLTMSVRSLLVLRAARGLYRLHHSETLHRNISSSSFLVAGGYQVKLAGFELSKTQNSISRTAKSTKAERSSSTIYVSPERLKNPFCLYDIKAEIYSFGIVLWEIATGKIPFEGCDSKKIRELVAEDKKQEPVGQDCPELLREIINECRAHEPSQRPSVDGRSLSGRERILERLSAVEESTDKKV
# [9] = test system: L929; assay: Anti-necroptosis activity against TNFalpha/z-VAD-fmk-induced mouse L929 cell necroptosis model assessed as prevention of necroptosis pretreated with compound for 1 hr followed by treated with TZ for 6 hrs by Hoechst 33342/PI staining based flow cytometric analysis; format: functional; conditions: dose 10-250 nmol/L, time 7.0 hrs
# [10] = test system: Mus musculus; assay: as §1, with “10” for “40”; format: functional; conditions: time 73 hrs
# [11] = Cytotoxicity against mouse L929 cells by CCK-8 assay; format: toxicity, cell-based
# [12] = test system: HT-29; assay: Anti-necroptosis activity against TSZ-induced human HT-29 cell necroptosis model assessed as cell viability pretreated with compound for 1 hr followed by treated with TSZ for 12 hrs; format: functional, cell-based; conditions: dose 0.039-10 µM, time 13.0 hrs
# [13] = target: Receptor-interacting serine/threonine-protein kinase 3 (Mus musculus) (UniProt Q9QZL0); assay: Inhibition of RIPK3 phosphorylation in mouse L929 cells at 250 nM by Western blotting analysis; format: cell-based; conditions: time 0.5-2.5 hrs, TDE = time-dependent effect
# [14] = test system: Mus musculus; assay: In vivo anti-necroptotic effect in TNFalpha-induced systemic inflammatory response syndrome C57BL/6J mouse model assessed as reduction in hypothermic injury at 10 to 40 mg/kg, ip followed by compound treatment after 1 hr injected moue TNFalpha and measured continuously upto 72 hrs; format: functional, organism-based; conditions: dose 10-40 mg/kg, time 73.0 hrs
# [15] = test system: Mus musculus; assay: as §1, with “25” for “40”; format: functional; conditions: time 73 hrs
# Chain of Receptor-interacting serine/threonine-protein kinase 3 (Mus musculus) (Q9QZL0 whole entry): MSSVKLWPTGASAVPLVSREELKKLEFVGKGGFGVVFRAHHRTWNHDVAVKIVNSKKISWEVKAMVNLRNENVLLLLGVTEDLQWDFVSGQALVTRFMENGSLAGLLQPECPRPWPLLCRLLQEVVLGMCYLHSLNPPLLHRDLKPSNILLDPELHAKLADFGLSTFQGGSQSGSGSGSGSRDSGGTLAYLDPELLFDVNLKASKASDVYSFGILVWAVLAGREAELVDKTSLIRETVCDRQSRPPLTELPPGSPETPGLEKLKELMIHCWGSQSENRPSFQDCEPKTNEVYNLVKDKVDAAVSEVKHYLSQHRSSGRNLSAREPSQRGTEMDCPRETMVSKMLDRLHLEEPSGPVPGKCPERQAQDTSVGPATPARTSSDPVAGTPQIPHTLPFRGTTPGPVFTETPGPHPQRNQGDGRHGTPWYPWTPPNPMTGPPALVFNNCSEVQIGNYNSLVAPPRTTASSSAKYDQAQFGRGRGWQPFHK
structure (smiles),measurement,setting,value
O=C(c1ccc(-c2cc3cccnc3[nH]2)cc1)N1CCOCC1,EC50,[1],56 nM
same,Activity,[2],inactive
same,inhibition,[3],Tde
same,IC50,[4],88 nM
same,Activity,[5],Dose-Dependent Effect
same,Activity,[6],Active
same,survival at 40 mg/kg,[7],100%
same,inhibition,[8],Active
same,Activity,[9],Dose-Dependent Effect
same,survival at 10 mg/kg,[10],75%
same,CC50,[11],> 50000 nM
same,Activity,[12],Dose-Dependent Effect
same,inhibition,[13],Tde
same,Activity,[14],Active
same,survival at 25 mg/kg,[15],100%
